Assay results: patent publication US20040229816A1, “Anti-angiogenic and anti-tumoral properties of beta and gamma secretase inhibitors” (priority 2003, published 2004)
Entries after “also recorded” stand apart in the source; their conditions may differ. Read-outs that look alike come from different tables or passages of the source. Numbered stars: 1 amine (or outer) side, 2 acyl side, 3 side chain; on linkers, the order of the positions; unused ones are H or OH. Square brackets hold non-standard residues; d marks the D form. Peptide text beside a SMILES is read from it. LeuΨ(S-CHOHCH2)Ala = CC(C)C[C@H](N[*:1])[C@@H](O)C[C@@H](C)C(=O)[*:2]; Sta = CC(C)C[C@H](N)[C@@H](O)CC(=O)O

What was measured:
explants of rat aortae = assay: rat aortic ring model of angiogenesis (microvessel outgrowths); type: cell-based, Sprague Dawley rats
Protocol: Twenty four well tissue culture grade plates (Nalgene International, NY) were covered with […] of Matrigel (Becton-Dickinson, Bedford, Mass.) and allowed to gel for 30 min at 37° C., 5% CO2. Briefly, thoracic aortae were excised from 9 month-old Sprague Dawley rats. After removing the fibroadipose tissue, arteries were sectioned into 1 mm long cross sections, rinsed 5 times with EBM (Clonetics Corp.) containing 4% fetal bovine serum (FBS) and placed on the Matrigel coated wells. Artery rings were covered with an additional […] of Matrigel. After polymerization the Matrigel was covered with 1 mL of EBM (4% FBS) containing various doses of Z-VVL-CHO, OM99-2, P10-P4′statV, DAPT, or L-685,458 as indicated in the figure legends (the culture medium was changed every 3 days). Pictures were taken at day 4, 5 and 6 using a 4×objective. Microvessel outgrowth area was quantified using the Image Pro Plus software. Briefly, ring cultures were photographed using a digital video camera linked to an Olympus BX60 microscope. The outgrowth area was delineated and measured with the Image Pro Plus software by using a strategy of microvessel outgrowth detection based on difference in color intensities between the outgrowths, the Matrigel and the artery ring. The artery rings were manually selected and excluded from the area of measurement and the color intensity threshold was adjusted to selectively measure the area occupied by the microvessel outgrowths. Results were expressed as a percentage of the area occupied by microvessel outgrowths at day 4 in control condition.

BACE = BACE (Homo sapiens, UniProt P56817); details: cited from earlier work
BACE, sequence (P56817 46-501, species assumed): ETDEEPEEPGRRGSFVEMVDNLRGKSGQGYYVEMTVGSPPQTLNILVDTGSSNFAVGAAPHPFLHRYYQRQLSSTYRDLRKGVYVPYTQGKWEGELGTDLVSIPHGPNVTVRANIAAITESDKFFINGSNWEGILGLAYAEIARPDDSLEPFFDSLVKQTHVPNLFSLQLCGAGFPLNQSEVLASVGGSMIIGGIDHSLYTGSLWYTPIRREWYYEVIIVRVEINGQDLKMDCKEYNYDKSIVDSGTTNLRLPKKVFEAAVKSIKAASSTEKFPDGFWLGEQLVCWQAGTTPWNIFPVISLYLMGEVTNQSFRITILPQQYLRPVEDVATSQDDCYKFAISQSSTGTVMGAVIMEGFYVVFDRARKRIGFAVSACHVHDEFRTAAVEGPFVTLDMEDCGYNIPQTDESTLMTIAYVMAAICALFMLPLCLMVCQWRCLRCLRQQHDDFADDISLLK

[1] = system: human brain endothelial cells; assay: viability of human brain endothelial cells (LDH activity in culture medium); type: cell-based; details: 24 hours; for cellular toxicity / viability of human brain endothelial cells versus control: doses employed; for LDH activity in the culture medium, ANOVA main effect: various doses
Protocol: (§1) Primary cultures of human brain endothelial cells were plated at a density of 10^4 cells/[…] of EBM 4% in 96 wells culture plates and treated with various doses of γ-secretase and β-secretase inhibitors as indicated in the figure legends. Following 24 hours in culture, the EBM covering the cells was removed and assayed for Lacticodehydrogenase (LDH) activity using the cytotoxicity detection kit (Roche Diagnostic Corporation, Ind.). Cells were covered with […] of EBM 4% and cellular proliferation measured using the Quick cell proliferation assay kit (Biovision Research Products, Calif.).

[2] = system: human brain endothelial cells; assay: proliferation of human brain endothelial cells (Quick cell proliferation assay kit); type: cell-based; details: various doses, 24 hours
Protocol: as §1

[3] = system: human lung adenocarcinoma (A-549) xenografts; assay: human lung adenocarcinoma A-549 xenografts in nude mice; type: in vivo
Protocol: FIG. 9a: Anti-tumoral effect of the γ-secretase inhibitor DAPT and of the β-secretase inhibitor Z-VLL-CHO on human lung adenocarcinoma (A-549) xenografts growth rates. A-549 cells (8.5×10^6) were injected subcutaneously into both flanks of 8-10 weeks-old nude mice. Mice were injected intraperitoneally with either the vehicle, 5 mg/Kg of body weight of the β-secretase inhibitor Z-VLL-CHO or 10 mg/Kg of body weight of the γ-secretase inhibitor DAPT, starting when tumors had reached a mean tumor volume of approximately 200 mm^3 (day 21 post implantation). Injections were given everyday for 12 days. […] FIG. 9b: Representative pictures of sections of lung adenocarcinoma tumors immunostained with CD31 antibodies. FIG. 9c: Histogram depicting the quantification of the vascularization of lung adenocarcinoma tumors.
FIG. 10: Anti-tumoral effect of the γ-secretase inhibitor JLK-6 on human lung adenocarcinoma (A-549) xenografts growth rates. A-549 cells (8.5×10^6) were injected subcutaneously into both flanks of 8-10 weeks-old nude mice. Mice were injected intraperitoneally everyday from Day 16 (when the tumors reached a volume of approximately 150 mm^3) with either the vehicle or 5 mg/Kg of body weight of the γ-secretase inhibitor JLK-6.
The human glioblastoma U-87 MG and human lung adenocarcinoma A-549 cell lines were obtained from American Tissue Culture Type Collection (Manassas, Va.) and were grown in DMEM containing 1×penicilline-streptomycine-fungizone and 10% fetal bovine serum at 37° C. in a humidified atmosphere of 5% CO2. Tumor cells (6×106) in 100 μl of PBS were inoculated subcutaneously into both flanks of 8-10-week-old female nude mice (Harland). Tumor volume (in mm^3) was determined using the formula (length×width^2)/2, where length was the longest axis and width the measurement at right angles to the length (Clarke et al. 2000). When the tumor volumes reached approximately 150 mm^3, animals were treated intraperitoneally everyday with 100 μl of 50% DMSO/H2O (vehicle group), 5 mg/Kg of body weight of Z-VLL-CHO (β-secretase inhibitor), 5 mg/Kg of JLK-6 (γ-secretase inhibitor) or with 10 mg/Kg of body weight of DAPT. Data were expressed as mean tumor volume±S.E for each treatment group.
At the completion of the study, animals were humanely euthanized and tumors were harvested and fixed in paraformaldehyde 4% overnight at 4° C. After paraffin embedding in an automated tissue processing Sakura Tissue-Tek (E150) (Torrence, Calif.), samples were cut into 5 μm sections, deparafinized, and rehydrated through a graded series of alcohol. Sections were treated with 0.02 mg/ml Proteinase K (Gentra Systems, MN) for 15 minutes at 37° C. to allow for proper antigen retrieval, washed several times in PBS and incubated for 15 minutes in a 0.3% solution of hydrogen peroxide. Sections were blocked and then immunostained with a 1:40 dilution of a PECAM-1 antibody (BD-Pharmingen, CA) overnight at 4° C. in a humidification chamber. Vector ABC Kits (Vector Laboratories Inc, CA) where used following the manufacturer's instruction for the immunostaining. Quantification of tumor vascularization was performed using the stereological dissector method. Briefly, forty consecutive sections were taken from a randomly chosen starting point in each tumor. Five sections for each tumor were selected for stereology by taking one section every eight sections. A dissector counting frame was used with inclusion and exclusion lines throughout the reference area. Vessel count was performed at ×400 magnification with the use of an Olympus microscope connected to a digital video camera. Microvessels were counted in the dissector frame by an experimenter unaware of the different treatment conditions. For each tumor an average vessel count per area of dissector frame was determined. A vascular index was calculated by expressing the vessel count as a percentage of the vessel count in the vehicle treatment condition.

[4] = angiogenesis in vitro (test not specified); type: cell-based
Notch = details: cited from earlier work
presenilin 1 and 2 = details: cited from earlier work
γ-secretase [5] = details: 7PA2 cells; cited from earlier work
Aβ = details: cited from earlier work
[6] = system: Human middle cerebral artery endothelial cells; assay: capillary morphogenesis assay; type: cell-based
Protocol: Two hundred μl of Matrigel were placed into each well of a 24-well culture plate at 4° C. and allowed to polymerize by incubation at 37° C. Human middle cerebral artery endothelial cells (5×104) were seeded on the Matrigel in 1 ml of EBM containing 4% fetal calf serum. The cells were incubated at 37° C. for 20 hours in a humidified 5% CO2 atmosphere in the presence or absence of various doses of γ-secretase and β-secretase inhibitors as indicated in the figure legends. The experiments were performed in quadruplicate for each treatment condition. For each culture, 2 randomly chosen fields were photographed using a 4×objective. An experimenter unaware of the different treatments measured the total length of tube structures in each photograph using the Image Pro Plus software (Media Cybernetic, Inc., Md.). Capillary network lengths for the different treatment conditions were expressed as the percentage of capillary network lengths obtained in the control condition.

APP [7] = assay: α-sAPP secretion by human brain endothelial cells (immunoprecipitation, immunoblotting); type: cell-based; details: 5 μM, 24 hours
Protocol: (§2) Confluent human brain endothelial cells (grown on 75 cm2 flasks with EBM 4% FBS medium) were treated for 24 hours with 5 μM of Z-VVL-CHO, 5 μM of L-685,458, 5 μM of OM99-2, 5 AM of DAPT or went untreated (control). Experiments were done in quadriplicate for each treatment condition. 6E10 (Signet), a mAb that recognizes residues 1-17 of human Aβ (Van Nostrand et al., Nature, 341, 546-549, 1989) was used to immunoprecipitate soluble APP generated following cleavage by α-secretase from cell culture medium. Immunoprecipitated material was resolved on a 4-20% gradient SDS-PAGE, transferred to PVDF membranes and immunodetected with mAb 22C11 (Roche Diagnostics) that recognizes the amino acids 66-81 of the N-terminal portion of APP (Hibich, C., J. Biol. Chem., 268, 26571-26577, 1993). Human brain endothelial cells were lysed on ice using MPERTM reagent (Pierce) supplemented with 1 mM PMSF and 1 mM of sodium-orthovanadate. Samples were sonicated and centrifuged at 10,000 g for 30 min at 4° C. The protein content of the lysates was determined using the BCA Protein assay kit (Pierce). Total lysates ([…] of protein/sample) were separated on a 4-20% gradient SDS-PAGE and transferred to PVDF membranes and immunoprobed with mAb 22C11 in order to detect full length APP and also immunoprobed with an Anti-APP-CT20 (Calbiochem) antibody which recognizes the amino acid residues 751-770 of the carboxyl terminal region of APP (Pinnix et al. 2001; J. Biol. Chem., 276, 481).

APP [8] = assay: carboxyl-terminal APP fragments in human brain endothelial cell lysates (immunoblotting); type: cell-based; details: 5 μM, 24 hours
Protocol: as §2

γ-secretase [9] = details: cited from earlier work
[10] = system: aspartyl protease cathepsin; details: cited from earlier work
presenilin = details: cited from earlier work

H-Lys-Thr-Glu-Glu-Ile-Ser-Glu-Val-Asn-Stat-Val-Ala-Glu-Phe-OH [P10-P4′statV, H-Lys-Thr-Glu-Glu-Ile-Ser-Glu-Val-Asn-Stat-Val-Ala-Glu-Phe-OH [Stat=(3S,4S)-Statine]]
sprouting of microvessel outgrowths, overall / dose dependence (explants of rat aortae; day 4, 5 and 6): dose dependently and potently inhibited | IC50 (BACE): 30 nM

COc1oc(=O)c2cc(N)ccc2c1Cl [JLK-6, 7-amino-4-chloro-3-methoxyisocoumarin]
cellular toxicity / viability of human brain endothelial cells versus control [1]: without inducing cellular toxicity | proliferation of human brain endothelial cells, dose dependence [2]: dose dependently inhibited | vascularization of A-549 tumors ([3]; 5 mg/Kg intraperitoneally): inhibited | growth (tumor volume) of A-549 xenografts versus vehicle ([3]; 5 mg/Kg intraperitoneally everyday from Day 16): inhibited; also recorded: significantly inhibits the growth; also recorded: inhibit the growth | angiogenesis in vitro [4]: appears to reduce angiogenesis | processing of Notch (Notch): does not affect | proteolysis of presenilin 1 and 2 (presenilin 1 and 2): does not affect

COC(=O)C(NC(=O)C(C)NC(=O)Cc1cc(F)cc(F)c1)c1ccccc1 [DAPM, N-[N-3,5-difluorophenacetyl]-L-alanyl-S-phenylglycine methyl ester]
cellular toxicity / viability of human brain endothelial cells versus control [1]: without inducing cellular toxicity | proliferation of human brain endothelial cells, dose dependence [2]: dose dependently inhibited | IC50 (γ-secretase [5]): ~10 nM | early Aβ oligomerization (Aβ dimer and trimer formation) (Aβ): prevents

CC(C)CC(NC(=O)C(Cc1ccccc1)CC(O)C(Cc1ccccc1)NC(=O)OC(C)(C)C)C(=O)NC(Cc1ccccc1)C(N)=O [L-685,458, {1S-Benzyl-4R-[1-(1S-carbamoyl-2-phenethylcarbamoyl)-1S-3-methylbutylcarba-moyl]-2R-hydroxy-5-phenyl-pentyl}carbamic acid tert-butyl ester]
cellular toxicity / viability of human brain endothelial cells versus control [1]: without inducing cellular toxicity | LDH activity in the culture medium, ANOVA main effect [1]: no main effect | proliferation of human brain endothelial cells, dose dependence [2]: dose dependently inhibited | capillary network length / capillary morphogenesis versus control ([6]; 5 μM, 20 hours): potent angiogenic effect | capillary morphogenesis ([6]; low dose): stimulated capillary morphogenesis | secretion of α-sAPP (APP [7]): not | accumulation of carboxyl-terminal APP fragments (APP CTF) (APP [8]): stimulates | accumulation of carboxyl-terminal APP fragments (APP CTF) (APP [8]; listed as L-685-485): promoted the accumulation | area covered by microvessel outgrowths versus control (explants of rat aortae; 1 μM): inhibited | area covered by microvessel outgrowths versus control (explants of rat aortae; 5 μM): inhibited | IC50 (γ-secretase [9]; read-out: Ab40 IC50): 48 nM | IC50 (γ-secretase [9]; read-out: Ab42 IC50): 67 nM | IC50 (γ-secretase [9]; read-out: Abtotal IC50): 17 nM | selectivity for γ-secretase than for the aspartyl protease cathepsin [10]: over a hundred-fold greater | binding to presenilin (presenilin): binds to presenilin | Notch intracellular domain production (Notch): blocks

CC(C)C[C@H](NC(=O)[C@H](CC(N)=O)NC(=O)[C@@H](NC(=O)[C@@H](N)CCC(=O)O)C(C)C)[C@@H](O)C[C@@H](C)C(=O)N[C@@H](C)C(=O)N[C@@H](CCC(=O)O)C(=O)N[C@@H](Cc1ccccc1)C(=O)O [OM99-2, Glu-Val-Asn-Leu-ψ-Ala-Ala-Glu-Phe [ψ denotes replacement of CONH by (S)—CH(OH)CH2]] (H-EVN[LeuΨ(S-CHOHCH2)Ala]AEF-OH)
cellular toxicity / viability of human brain endothelial cells versus control [1]: without affecting their viability | LDH activity in the culture medium, ANOVA main effect [1]: significant main effect

CC(C)C[C@H](NC(=O)[C@H](CC(N)=O)NC(=O)[C@@H](NC(=O)[C@@H](N)CCC(=O)O)C(C)C)[C@@H](O)CC(=O)N[C@H](C(=O)N[C@@H](C)C(=O)N[C@@H](CCC(=O)O)C(=O)N[C@@H](Cc1ccccc1)C(N)=O)C(C)C [GL189, H-Glu-Val-Asn-Statine-Val-Ala-Glu-Phe-NH] (H-EVN[Sta]VAEF-NH2)
cellular toxicity / viability of human brain endothelial cells versus control [1]: without affecting their viability
